How the values were obtained:
Human recombinant FAP [1] = target: T1, Human recombinant FAP (Homo sapiens (Human), UniProt Q12884); assay: FAP protease activity assay (human), FRET-based; assay type: biochemical; settings: for IC50: read-out: pIC50 (Activity) (converted)
Experimental: (§1) In order to determine the inhibitory activity a FRET-based FAP protease activity assay was established.
Four parameter logistic (4PL) curve fitting and pIC50 calculations were performed using ActivityBase software (IDBS).
Target sequence in this assay (Q12884 26-760): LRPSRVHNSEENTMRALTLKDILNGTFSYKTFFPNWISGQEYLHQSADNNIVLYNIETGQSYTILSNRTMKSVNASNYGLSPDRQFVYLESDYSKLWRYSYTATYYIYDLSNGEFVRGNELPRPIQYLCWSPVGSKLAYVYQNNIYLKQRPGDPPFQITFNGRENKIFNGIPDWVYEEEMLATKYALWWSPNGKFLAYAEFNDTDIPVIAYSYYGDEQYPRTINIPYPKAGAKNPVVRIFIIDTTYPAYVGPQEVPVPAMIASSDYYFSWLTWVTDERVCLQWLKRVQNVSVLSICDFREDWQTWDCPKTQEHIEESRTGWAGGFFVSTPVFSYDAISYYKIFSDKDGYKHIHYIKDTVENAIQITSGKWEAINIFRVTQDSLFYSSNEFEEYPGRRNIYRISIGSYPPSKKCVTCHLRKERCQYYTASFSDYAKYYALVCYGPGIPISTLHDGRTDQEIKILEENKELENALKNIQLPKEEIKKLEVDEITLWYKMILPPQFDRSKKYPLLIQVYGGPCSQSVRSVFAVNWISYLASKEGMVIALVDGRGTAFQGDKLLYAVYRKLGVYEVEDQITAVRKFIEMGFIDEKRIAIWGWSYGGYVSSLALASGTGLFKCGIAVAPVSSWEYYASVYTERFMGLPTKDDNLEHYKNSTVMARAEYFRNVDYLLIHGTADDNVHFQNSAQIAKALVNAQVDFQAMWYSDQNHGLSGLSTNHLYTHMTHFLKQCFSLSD

Recombinant mouse FAP = Recombinant mouse FAP (Mus musculus (Mouse), UniProt P97321); assay: FAP protease activity assay (mouse), FRET-based; assay type: biochemical
Experimental: as §1
Four parameter logistic (4PL) curve fitting and pIC50 calculations were performed using ActivityBase software.

[2] = target: FAP-expressing human WI-38 fibroblasts (Homo sapiens (Human), UniProt Q12884); assay: FACS binding assay (competitive, Cy5-labeled 3BP-2935)
Experimental: In order to determine binding of compounds according to the present invention to FAP-expressing cells, a competitive FACS binding assay was established. […] Cells were diluted in FACS buffer to a final concentration of 100.000 cells per ml and 200 μl of the cell suspension are transferred to a u-shaped non-binding 96-well plate (Greiner). […] Cell were washed twice with FACS buffer (see above) and resuspended in 200 μl FACS buffer. Cells were analyzed in an Attune NxT flow cytometer (Thermo Fisher Scientific). Median fluorescence intensities (Cy5 channel) were calculated by Attune NxT software and plotted against test compound concentrations. Four parameter logistic (4PL) curve fitting and pIC50 calculations were performed using ActivityBase software.

Recombinant human DPP4 = Recombinant human DPP4 (Homo sapiens (Human), UniProt P27487); assay: DPP4 protease activity assay; assay type: biochemical
Experimental: The PREP activity assay was performed using the FACS buffer (PBS including 1% FBS, Sigma-Aldrich, Cat #D8537). […] The DPP4 activity assay was performed in DPP assay buffer (25 mM Tris, pH 8.0). […] Four parameter logistic (4PL) curve fitting and pIC50 calculations were performed using ActivityBase software.

Human recombinant FAP [3] = target: T1, Human recombinant FAP; assay: Surface plasmon resonance assay (Biacore T200, SCK); assay type: binding; settings: for HL [min] (Biacore): SPR dissociation half-life; for Kd: read-out: pKD (Biacore) (converted)
Experimental: Surface plasmon resonance studies were performed using a Biacore™ T200 SPR system (Cytiva, formerly GE Healthcare). Briefly, polarized light is directed towards a gold-labeled sensor surface, and minimum intensity reflected light is detected. The angle of reflected light changes as molecules bind and dissociate. […] Test compounds are contacted with the loaded surface, and a real-time interaction profile with the FAP ligand is recorded in a sensorgram. In real-time, the association and dissociation of a binding interaction is measured, enabling calculation of association and dissociation rate constants and the corresponding affinity constants. Importantly, a background response is generated due to the difference in the refractive indices of the running and sample buffers, as well as unspecific binding of the test compounds to the flow cell surface. This background is measured and subtracted by running the sample on a control flow cell coated with the same density of capture antibody in the absence of immobilized FAP. Furthermore, baseline drift correction of the binding data is performed, which is caused by slow dissociation of the captured FAP from the immobilized antibody. This drift is measured by injecting running buffer through a flow cell with the antibody and FAP immobilized to the sensor surface.
Biacore™ CM5 sensor chips were used. […] A 150 μL aliquot was transferred into plastic vials and placed into the sample rack of the Biacore™ T200 instrument. Amine Coupling Kit Reagent solutions were transferred into plastic vials and placed into the sample rack: 90 μL of 0.4 M 1-ethyl-3-(3-dimethylaminopropyl) carbodiimide (EDC), and 90 μL of 0.1 M N-hydroxysuccinimide (NHS). A 130 μL aliquot of 1 M ethanolamine-HCl, pH 8.5, was transferred into plastic vials and placed into the sample rack. The Biacore™ liquid system was set-up as follows: Separate bottles containing distilled water (1 L), Running Buffer (500 mL), as well as an empty bottle for waste were placed onto the buffer tray. A preinstalled program for immobilization was used, with an immobilization level of 7000 RU. Immobilization was performed at 25° C. The immobilization procedure of anti-FAP antibodies was performed, as described in the Table 4.
Human recombinant FAP was diluted in Running Buffer to a final concentration of 20 μg/mL. A 100 μL aliquot of human FAP-Working-Solution was transferred into plastic vials and placed into a sample rack. A 0.5 mM Compound-Stock-Solution was prepared by dissolving each compound in DMSO. For each test compound, Compound-Stock-Solutions were diluted in Running Buffer (HBST) at 500 nM and further diluted with HBST-DMSO Buffer (0.1% DMSO). SPR binding analyses for binary complexes were performed in SCK mode at 25° C. Following three SCK measurements, a baseline drift was assessed by injecting running buffer through a flow cell, with the antibody and FAP immobilized to the sensor surface.
For each test compound, SPR raw data in the form of resonance units (RU) were plotted as sensorgrams using the Biacore™ T200 control software. The signal from the blank sensorgram was subtracted from that of the test compound sensorgram (blank corrected). The blank corrected sensorgram was corrected for baseline drift by subtracting the sensorgram of a SCK run without the test compound (running buffer only). The association rate (kon), dissociation rate (koff), dissociation constant (KD), and t1/2 were calculated from Blank-normalized SPR data using the 1:1 Langmuir binding model from the Biacore™ T200 evaluation software. Raw data and fit results were imported as text files in IDBS. The pKD value (negative decadic logarithm of dissociation constant) was calculated in the IDBS excel template.
Target sequence in this assay (Q12884 whole entry): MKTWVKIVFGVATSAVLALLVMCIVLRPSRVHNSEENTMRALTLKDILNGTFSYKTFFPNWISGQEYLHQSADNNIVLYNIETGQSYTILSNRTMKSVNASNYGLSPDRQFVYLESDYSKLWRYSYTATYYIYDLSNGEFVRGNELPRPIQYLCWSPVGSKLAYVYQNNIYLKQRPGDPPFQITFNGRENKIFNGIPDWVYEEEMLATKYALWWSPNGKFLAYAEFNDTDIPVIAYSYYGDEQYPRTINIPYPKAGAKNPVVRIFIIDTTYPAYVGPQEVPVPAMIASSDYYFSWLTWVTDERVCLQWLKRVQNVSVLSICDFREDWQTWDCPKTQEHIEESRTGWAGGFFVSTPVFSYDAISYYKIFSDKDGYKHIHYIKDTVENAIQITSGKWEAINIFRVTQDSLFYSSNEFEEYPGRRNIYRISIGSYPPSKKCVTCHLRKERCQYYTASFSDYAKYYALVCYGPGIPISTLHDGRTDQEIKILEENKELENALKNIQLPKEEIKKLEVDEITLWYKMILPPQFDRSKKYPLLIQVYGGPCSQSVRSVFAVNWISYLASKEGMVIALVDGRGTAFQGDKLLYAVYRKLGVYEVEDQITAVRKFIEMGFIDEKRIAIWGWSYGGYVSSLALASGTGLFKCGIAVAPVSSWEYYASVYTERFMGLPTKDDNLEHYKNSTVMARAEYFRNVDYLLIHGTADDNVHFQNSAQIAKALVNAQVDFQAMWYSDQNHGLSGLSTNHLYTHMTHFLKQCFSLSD

[4] = human FAP protease activity, FRET
[5] = recombinant mouse FAP protease activity

Chain of Recombinant mouse FAP (P97321 whole entry): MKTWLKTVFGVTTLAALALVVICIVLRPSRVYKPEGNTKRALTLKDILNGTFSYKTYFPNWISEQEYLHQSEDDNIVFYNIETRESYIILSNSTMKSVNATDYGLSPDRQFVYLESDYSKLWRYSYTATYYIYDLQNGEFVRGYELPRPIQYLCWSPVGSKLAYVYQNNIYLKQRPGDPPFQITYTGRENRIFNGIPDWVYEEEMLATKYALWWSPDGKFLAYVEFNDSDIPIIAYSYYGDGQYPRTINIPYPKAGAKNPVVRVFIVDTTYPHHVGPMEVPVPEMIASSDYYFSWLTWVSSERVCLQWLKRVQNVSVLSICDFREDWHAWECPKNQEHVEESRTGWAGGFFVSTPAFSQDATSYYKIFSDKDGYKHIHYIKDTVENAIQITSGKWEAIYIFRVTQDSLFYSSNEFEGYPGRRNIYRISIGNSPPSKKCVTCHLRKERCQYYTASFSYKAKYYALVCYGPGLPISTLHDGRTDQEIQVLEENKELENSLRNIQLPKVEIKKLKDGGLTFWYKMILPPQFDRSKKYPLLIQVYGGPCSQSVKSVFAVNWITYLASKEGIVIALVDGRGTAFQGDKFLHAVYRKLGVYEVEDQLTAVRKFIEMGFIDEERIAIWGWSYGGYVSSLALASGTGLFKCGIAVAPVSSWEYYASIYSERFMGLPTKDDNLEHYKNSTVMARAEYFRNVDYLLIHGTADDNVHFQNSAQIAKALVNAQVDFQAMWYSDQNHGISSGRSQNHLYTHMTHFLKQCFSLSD
Chain of FAP-expressing human WI-38 fibroblasts (Q12884 whole entry): as the sequence (Q12884 whole entry) above
Chain of Recombinant human DPP4 (P27487 whole entry): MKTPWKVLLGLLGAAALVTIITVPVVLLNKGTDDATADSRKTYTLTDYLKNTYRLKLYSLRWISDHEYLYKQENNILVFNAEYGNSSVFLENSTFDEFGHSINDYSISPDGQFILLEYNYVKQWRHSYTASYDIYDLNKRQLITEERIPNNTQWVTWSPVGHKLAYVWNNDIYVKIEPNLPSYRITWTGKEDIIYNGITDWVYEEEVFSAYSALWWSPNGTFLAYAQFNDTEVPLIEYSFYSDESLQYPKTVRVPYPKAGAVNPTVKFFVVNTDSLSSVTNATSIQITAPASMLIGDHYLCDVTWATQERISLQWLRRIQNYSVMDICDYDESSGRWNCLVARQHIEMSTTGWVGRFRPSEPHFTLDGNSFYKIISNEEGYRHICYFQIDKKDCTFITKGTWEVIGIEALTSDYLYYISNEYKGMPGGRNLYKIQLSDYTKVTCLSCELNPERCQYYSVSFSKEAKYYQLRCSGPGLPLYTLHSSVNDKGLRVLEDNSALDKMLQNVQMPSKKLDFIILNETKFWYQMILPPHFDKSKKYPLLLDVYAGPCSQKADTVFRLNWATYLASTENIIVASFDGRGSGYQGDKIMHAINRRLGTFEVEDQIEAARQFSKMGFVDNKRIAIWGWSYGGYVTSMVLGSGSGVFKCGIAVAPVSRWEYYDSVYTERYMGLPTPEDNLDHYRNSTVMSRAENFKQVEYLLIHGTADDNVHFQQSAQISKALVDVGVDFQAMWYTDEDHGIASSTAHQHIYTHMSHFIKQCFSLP

| SMILES | pIC50 (Activity) (Human recombinant FAP [1]; [4]) | pIC50 (FACS) ([2]; WI-38 fibroblasts) | HL [min] (Biacore) (Human recombinant FAP [3]) | other results |
| --- | --- | --- | --- | --- |
| N#C[C@@H]1CC(F)(F)CN1C(=O)CNC(=O)c1ccnc2ccc(OCCCN3CCN(C(=O)CN4CCN5CCN6CCN(CC4)CC(=O)[O][Eu]([O]C(=O)C6)[O]C(=O)C5)CC3)cc12 [Compound 3BP-3663] |  |  |  | pIC50 (Activity) (Human recombinant FAP [1]; recombinant human FAP, FRET protease activity): 9.3; pIC50 (mouseFAP) (Recombinant mouse FAP; recombinant mouse FAP, FRET protease activity): 9.1; pIC50 (FACS) ([2]; FAP-expressing WI-38 fibroblasts): 8.6 |
| CS(=O)(=O)c1ccc(-c2ccc3nccc(C(=O)NCC(=O)N4C[C@H](F)C[C@H]4C#N)c3c2)cc1 [Compound 3BP-3773] | 8.5 | 7.3 |  | pIC50 (mouseFAP) (Recombinant mouse FAP; [5]): 8; pIC50 (DPP4) (Recombinant human DPP4): <6 |
| N#C[C@@H]1CCCN1C(=O)CNC(=O)c1ccnc2ccc(-c3ccc(C(=O)NCCCNC(=O)CN4CCN(CC(=O)O)CCN(CC(=O)O)CCN(CC(=O)O)CC4)cc3)cc12 [Compound 3BP-3785] |  |  | >150 min |  |
| Cc1cc2nccc(C(=O)NCC(=O)N3CC(F)(F)C[C@H]3C#N)c2cc1-c1ccc(S(C)(=O)=O)cc1 [Compound 3BP-4026] | 9.3 | 8.9 |  | pIC50 (mouseFAP) (Recombinant mouse FAP; [5]): 8.8 |
| N#C[C@@H]1CC(F)(F)CN1C(=O)CNC(=O)c1ccnc2ccc(-c3ccc(C(=O)NCCN4CCN(C(=O)CN5CCN(CC(=O)O)CCN(CC(=O)O)CCN(CC(=O)O)CC5)CC4)nc3)cc12 [Compound 3BP-4076, (S)-2,2′,2″-(10-(2-(4-(2-(5-(4-(2-(2-cyano-4,4-difluoropyrrolidin-1-yl)-2-oxoethylcarbamoyl)quinolin-6-yl)picolinamido)ethyl)piperazin-1-yl)-2-oxoethyl)-1,4,7,10-tetraazacyclododecane-1,4,7-triyl)triacetic Acid] |  |  | >150 min | Kd (Human recombinant FAP [3]; SPR): < 0.0316 nM; IC50 (Human recombinant FAP [1]; [4]): 0.631 nM; IC50 ([2]; WI-38 fibroblasts): 1.26 nM |
| O=C(NCC(=O)N1CCC[C@H]1B(O)O)c1ccnc2ccccc12 [Compound 3BP-4081] | 8.9 | 8.5 |  |  |
| CS(=O)(=O)c1ccc(-c2ccc3nccc(C(=O)NCC(=O)N4CC(F)(F)C[C@H]4C#N)c3c2)c(CO)c1 [Compound 3BP-4084, (S)—N-(2-(2-cyano-4,4-difluoropyrrolidin-1-yl)-2-oxoethyl)-6-(2-(hydroxymethyl)-4-(methylsulfonyl)phenyl)quinoline-4-carboxamide] |  |  | >150 min |  |
| COc1cccc2c(C(=O)NCC(=O)N3CC(F)(F)C[C@H]3C#N)ccnc12 [Compound 3BP-4085] | 8.2 | 7.7 |  |  |
| Cc1cccc2c(C(=O)NCC(=O)N3CC(F)(F)C[C@H]3C#N)ccnc12 [Compound 3BP-4150] | 7.9 | 7.6 |  |  |
| CCOc1cccc2c(C(=O)NCC(=O)N3CC(F)(F)C[C@H]3C#N)ccnc12 [Compound 3BP-4151] | 8.5 | 7.7 |  |  |
| O=C(NCC(=O)N1CCC[C@H]1C(=O)CO)c1ccnc2ccccc12 [Compound 3BP-4197, (S)—N-(2-(2-(2-hydroxyacetyl)pyrrolidin-1-yl)-2-oxoethyl)quinoline-4-carboxamide] |  |  | 3.1 min | Kd (Human recombinant FAP [3]; SPR): 1 nM; IC50 (Human recombinant FAP [1]; [4]): 3.16 nM; IC50 ([2]; WI-38 fibroblasts): 10 nM |
| O=C(O)CN1CCN(CC(=O)O)CCN(CC(=O)NCCCNC(=O)c2ccc(-c3ccc4nccc(C(=O)NCC(=O)N5CCC[C@H]5B(O)O)c4c3)cc2)CCN(CC(=O)O)CC1 [Compound 3BP-4201] |  |  | >150 min | pKD (Biacore) (Human recombinant FAP [3]; SPR): >10.5 |

Reference: US20240335569A1, “FIBROBLAST ACTIVATION PROTEIN INHIBITORS AND USE THEREOF” (3 B PHARMACEUTICALS GMBH, priority 2021, published 2024)
